These results are taken from patent US20050008653A1, “Stabilizing molecule” (Medical Research Council, priority 2001, published 2005).

Several values for one entry are separate records, joined by “and”; a condition that tells them apart may be missing. Equal entries are not always repeated. Where two headings read alike, the source gives them in different places.

In data set [1] the target is T1, p53 core domain (Homo sapiens, UniProt P04637). Put plainly: Refolding of urea-denatured p53 core domain by fluorescence anisotropy. To be noted: 3 M urea, 10° C. Also on record: human p53 core domain wild-type and mutants (residues 94-312); made in house. The class given is biochemical. The source says: Upon mixing the peptide with p53 core domain a rapid binding event takes place, leading to the formation of a FL-CDB3-p53 core domain complex. […] There is an increase in the anisotropy over time, as the peptide induced protein refolding by mass action (FIG. 6d). […] Urea weakened the binding to the native structure so that the stabilising effects in 3 M urea are not as pronounced as they would be in water alone.
(Polarisation of emitted light reports the rotation of a fluorescent probe.)

In a further data set the test system is tumour cells. The experiment in a line: FACS analysis of cell cycle distribution and cell death (subG1). The class given is cell-based. The following applies: 10 μg/mL, 24 h. A general note: A flow cytometer gives signals particle by particle.
Data set [2] relates to H1299 cells containing p53 R175H. Put plainly: Distribution of FL-CDB3 in cells (fluorescence microscopy). The class given is cell-based. To be noted: without Lipofectamine. The method, then:
The results can be seen in FIG. 8.
Top left: H1299 cells containing p53 R 175H. […] The peptide remained visible for at least 48 h.

Data set [3] concerns the target T2, p53 core domain mutant I195T (Homo sapiens, UniProt P04637, I195T).
T2 construct: human p53 core domain wild-type and mutants (residues 94-312); made in house
Put plainly: Binding to random double stranded DNA sequence in presence of peptide. The class given is biochemical. An excerpt:
To confirm that the restoration of DNA binding is sequence-specific, we repeated the experiments with the random double stranded DNA sequence fluorescein-[…] […].

Data set [4] addresses T3, wild-type p53 core domain (Homo sapiens, UniProt P04637).
T3 construct: human p53 core domain wild-type and mutants (residues 94-312); made in house
Put plainly: DNA binding in presence of peptide (Gadd45 DNA). The class given is biochemical.

Data set [5] has as its target T2, p53 core domain mutant I195T. Put plainly: Restoration of sequence-specific DNA binding (fluorescein-labelled Gadd45 DNA, anisotropy). The class given is biochemical. To be noted: CDB3 100 μM.
A further data set deals with p53 (Homo sapiens, UniProt P04637). The experiment in a line: Stabilisation of active conformations of p53 (no method given).
In a further data set the test system is p53 mutant His273. The following applies: 24 h incubation, 1-10 μg/mL FL-CDB3.
Data set [6] concerns wtp53 in colon carcinoma HCT116 cells. The experiment in a line: Western blot of induced protein expression. The following applies: 24 h, 10 μg/mL FL-CDB3. The class given is cell-based.
The target in data set [7] is T1, p53 core domain. To be noted: Gadd45 DNA 5-25 μM.
Data set [8] deals with control H1299 (p53 null) cells. To be noted: 10 μg/mL peptide, 24 h; before treatment 3%. The protocol:
(§1) The general methods used in the examples set forth below are described in detail in Bykov et al., Nature Med 8, 282-288 (2002) which is herein incorporated by reference.
(§2) Tumour cells were treated with 10 μg/mL of peptide and analysed the cell cycle distribution and cell death (as subG1 fraction) 24 h post treatment using FACS analysis.

Data set [9] concerns control Saos-2 (p53 null) cells. The following applies: 10 μg/mL peptide, 24 h; before treatment 3%. The protocol:
as §1, §2

The target of data set [10] is T3, wild-type p53 core domain. Put plainly: Differential scanning calorimetry (apparent Tm). To be noted: HEPES buffer pH 7.2, 1 mM DTT; 40.1° C. without peptide. The class given is binding. The protocol: Differential Scanning Calorimetry may also be used to detect and/or quantify binding. Differential Scanning Calorimetry may be performed using methods known to those skilled in the art. In a suitable example, DSC experiments are performed using a Microcal VP-DSC microcalorimeter (Microcal, Amherst, Mass.). Temperatures from 5 to 95° C. are scanned at a rate of 60 deg/h, using a HEPES buffer pH 7.2, 1 mM DTT, which also served for baseline measurements. […] A pressure of 25 psi […] is applied to the cell. The data is analysed using Origin software (Microcal).
The thermal denaturation of p53 core domain is irreversible, and thus only an apparent melting temperature (Tm) can be determined (Bullock et al., 1997), but increase in stability can be correlated with increase in the apparent Tm. All DSC measurements are carried out in HEPES buffer pH 7.2, 1 mM DTT.
In general terms: DSC measures the heat that a sample takes up or gives off during a temperature scan.

For a further data set, the system named is H1299-His175 cells. The experiment in a line: Dead cells by trypan blue exclusion. The class given is cell-based. To be noted: 10 μg/mL peptide, 24 h; before treatment 5%.
A further data set concerns Saos-2-His273 cells. The experiment in a line: Dead cells by trypan blue exclusion. To be noted: 10 μg/mL peptide, 24 h; before treatment 3%. The class given is cell-based.
The next data set concerns HCTp53-/- cells. Put plainly: Western blot of induced protein expression. The class given is cell-based. To be noted: 24 h, 10 μg/mL FL-CDB3.
In data set [11] the target is wild-type p53 core domain (94-312) (Homo sapiens, UniProt P04637). To be noted: increasing urea concentrations.
For data set [12], the system named is p53 mutant His175 in H1299 lung carcinoma cells. To be noted: 24 h incubation. The method, then: as §1
Lung carcinoma cells H1299 transfected with His175 p53 mutant and parental nontransfected cells were treated with the amounts of peptide indicated below, incubated for 24 h and tested for p53, p21, and Mdm-2 protein expression. […] The treatment with peptide was performed either with or without Lipofectamine.

Data set [13] concerns the target T1, p53 core domain. The experiment in a line: Anisotropy competition with fluorescein-labeled CDB3. To be noted: solution measurements.
Data set [14] concerns the target T1, p53 core domain. Put plainly: BIAcore binding of p53 core domain to immobilised biotinylated CDB3 (half saturation concentration). More on the design: human p53 core domain wild-type and mutants (residues 94-312); made in house. An excerpt: Surface plasmon resonance measurements may be performed using a BIAcore 2000 using methods familiar to those skilled in the art. For example, it may be equipped with a sensor chip SA (BIAcore AB, Uppsala, Sweden) both to screen the polypeptide for binding of stabilising molecule and to quantify the binding of the stabilising molecule to the polypeptide. […] Biotinylated stabilising molecules such as CDB peptides may be immobilised and the binding of the polypeptide (in this case p53) can therefore be studied.
All immobilisation as well as binding measurements may be performed at 10° C. with 50 mM HEPES, pH 7.2, 5 mM DTT, as running buffer, using a sample frequency of 1 Hz. The streptavidin surface of the chip can be activated with […] NaOH, 1 M NaCl, in three cycles of 1 min, 20 μL/min, before the immobilization of peptides. The biotinylated peptides may be dissolved to a final concentration of 1.5-4.0 mM (in buffer as above with addition of 0.13 M NaCl) and can be immobilised at a flow rate of 5 μL/min until the level of saturation is reached. In the above Example Flow cell 1 can be used as a background for the change in bulk refractive index.
The binding association is measured for 5 min at 30 μL/min, […], in the buffer described above (no salt added). […]
Surface plasmon resonance can be used to measure the CDB3-p53 core domain binding constant quantitatively. […]

Take `CC[C@H](C)[C@H](NC(=O)[C@H](CCC(=O)O)NC(=O)[C@H](CC(=O)O)NC(=O)[C@H](CCC(=O)O)NC(=O)[C@H](CC(=O)O)NC(=O)[C@H](CCC(=O)O)NC(=O)[C@@H](N)CCCNC(=N)N)C(=O)N[C@@H](CCC(=O)O)C(=O)N[C@@H](Cc1c[nH]c2ccccc12)C(N)=O` [CDB3]: the “refolding of p53 core domain” value on p53 core domain [1] is given as “induced refolding of p53 core domain”. For the same molecule, in the data set with tumour cells, the apoptosis entry is recorded as “induces apoptosis in tumour cells in p53-dependent manner” and the growth arrest result is recorded as “no growth arrest was detected”. In data set [2], the penetration into cells result was “able to penetrate inside the cells by itself”. Also, the “effect on binding of I195T to random DNA sequence” value in data set [3] was “not improved, but rather inhibited”. The “effect on DNA binding of wild-type p53 core domain” value in data set [4] was “did not affect DNA binding”. Further, the “improvement of I195T binding to Gadd45 DNA” value in data set [5] was “six fold”.
`COc1ccc(/C=C/c2nc(NCCCN(C)C)c3ccccc3n2)cc1` [CP-31398]: the “stabilisation of active conformations of p53” value on p53 is “does not in fact work to stabilise active conformations of p53”.
Regarding `CC[C@H](C)[C@H](NC(=O)[C@H](CCC(=O)O)NC(=O)[C@H](CC(=O)O)NC(=O)[C@H](CCC(=O)O)NC(=O)[C@H](CC(=O)O)NC(=O)[C@H](CCC(=O)O)NC(=O)[C@H](CCCNC(=N)N)NC(=O)c1ccc2c(c1)C(=O)OC21c2ccc(O)cc2Oc2cc(O)ccc21)C(=O)N[C@@H](CCC(=O)O)C(=O)N[C@@H](Cc1c[nH]c2ccccc12)C(N)=O` [FL-CDB3], the penetration into cells entry in data set [2] was “able to penetrate inside the cells by itself”. Moreover, the “p21 and Mdm-2 protein expression” value with p53 mutant His273 is “restored the ability of p53 mutants His175 and His273 to activate the transcription of endogenous genes p21 and Mdm-2”; in data set [12] (10 μg/mL FL-CDB3), “restored the ability of p53 mutants His175 and His273 to activate the transcription of endogenous genes p21 and Mdm-2”. Besides, in data set [6], the “Mdm-2 and p21 expression” value was “activates expression of Mdm-2 and p21”. Moreover, the “displacement of peptide from p53 core domain by DNA” value on p53 core domain [7] was “displaced the peptide completely”. The “dead cells after treatment” value in [8] is 11%; in data set [9] it was 13%; in the data set with H1299-His175 cells, 37%; with Saos-2-His273 cells, 28%. Besides, in data set [10], the “apparent Tm of wild-type core domain in presence of peptide” value is 41.6 °C. Moreover, the “p21 and Mdm-2 induction” value with HCTp53-/- cells was “No induction of p21 nor Mdm-2”. Also, the “dependence of binding on urea concentration” value in data set [11] was “binding weakened with increasing urea concentrations”. Moreover, the “mutant p53 levels” value in data set [12] is recorded as “remarkably increased”.
With `CC[C@H](C)[C@H](NC(=O)[C@H](CCC(=O)O)NC(=O)[C@H](CC(=O)O)NC(=O)[C@H](CCC(=O)O)NC(=O)[C@H](CC(=O)O)NC(=O)[C@H](CCC(=O)O)NC(=O)[C@H](CCCNC(=N)N)NC(=O)CCCC[C@@H]1SC[C@@H]2NC(=O)N[C@@H]21)C(=O)N[C@@H](CCC(=O)O)C(=O)N[C@@H](Cc1c[nH]c2ccccc12)C(N)=O` [biotinylated CDB3], the “improvement of affinity compared to the unlabeled peptide” value on p53 core domain [13] is recorded as “three-fold”. Besides, the Kd at p53 core domain [14] (biotinylated CDB3 immobilized on SA sensor chip, read-out: concentration of p53 core domain for 50% binding) is around 200 nM; on p53 core domain [14] (immobilized peptide, half saturation concentration by BIAcore, read-out: Kd), 200 nM and ~200 nM.
